According to patent US20250122174A1 (Shenzhen Yuanli Shenwan Innovative Medicine Co., Ltd., priority 2022, published 2025):

Biological target: HPK1 (Homo sapiens (Human), UniProt Q92918)
Test: HPK1 Inhibition Assay (ADP-Glo kinase assay)
Format: biochemical
Settings: ATP 10 μM
Method in brief: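 ADP-Glo luminescence read-out after 1 h room-temperature kinase reaction with 10 μM ATP and 0.1 μg/ml MBP. Recombinant human HPK1 at 7.5 ng/μl; buffer 40 mM Tris pH 7.5, 20 mM MgCl2. Compounds serially diluted 5-fold over 10 points from 10 mM DMSO stock.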

HPK1, sequence (Q92918 1-346 limits assumed): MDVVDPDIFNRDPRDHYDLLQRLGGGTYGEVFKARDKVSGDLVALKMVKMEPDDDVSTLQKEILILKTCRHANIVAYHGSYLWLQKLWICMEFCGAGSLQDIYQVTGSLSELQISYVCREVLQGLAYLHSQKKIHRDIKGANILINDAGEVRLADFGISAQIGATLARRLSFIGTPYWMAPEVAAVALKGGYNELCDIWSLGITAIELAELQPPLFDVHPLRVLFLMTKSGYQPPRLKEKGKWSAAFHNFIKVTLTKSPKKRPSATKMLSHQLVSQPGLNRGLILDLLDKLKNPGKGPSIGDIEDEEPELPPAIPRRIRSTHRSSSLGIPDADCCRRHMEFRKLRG

Compound	IC50 [nM]
C[C@@H]1CN(c2c(NC(=O)c3ccc(=O)n(-c4c(F)cccc4F)n3)ccc3c2cnn3[C@H]2CCCOC2)C[C@@H]1N [Example 253, N-(4-((3R,4R)-3-amino-4-methylpyrrolidin-1-yl)-1-((S)-tetrahydro-2H-pyran-3-yl)-1H-indazol-5-yl)-1-(2,6-difluorophenyl)-6-oxo-1,6-dihydropyridazine-3-carboxamide]	< 100
C[C@@H]1CN(c2c(NC(=O)c3ccc(=O)n(-c4c(F)cccc4F)n3)ccc3c2cnn3[C@H]2CCOC2)C[C@@H]1N [Example 255, N-(4-((3R,4R)-3-amino-4-methylpyrrolidin-1-yl)-1-((S)-tetrahydrofuran-3-yl)-1H-indazol-5-yl)-1-(2,6-difluorophenyl)-6-oxo-1,6-dihydropyridazine-3-carboxamide]	< 100
CC[C@H](C)n1ncc2c(N3C[C@@H](C)[C@@H](N)C3)c(NC(=O)c3ccc(=O)n(-c4c(F)cccc4F)n3)ccc21 [Example 256, N-(4-((3R,4R)-3-amino-4-methylpyrrolidin-1-yl)-1-((S)-sec-butyl)-1H-indazol-5-yl)-1-(2,6-difluorophenyl)-6-oxo-1,6-dihydropyridazine-3-carboxamide]	< 100
CC[C@@H](C)n1ncc2c(N3C[C@@H](C)[C@@H](N)C3)c(NC(=O)c3ccc(=O)n(-c4c(F)cccc4F)n3)ccc21 [Example 257, N-(4-((3R,4R)-3-amino-4-methylpyrrolidin-1-yl)-1-((R)-sec-butyl)-1H-indazol-5-yl)-1-(2,6-difluorophenyl)-6-oxo-1,6-dihydropyridazine-3-carboxamide]	< 100
C[C@@H]1CN(c2c(NC(=O)c3ccc(=O)n(-c4c(F)cccc4F)n3)ccc3c2cnn3C2COC2)C[C@@H]1N [Example 258, N-(4-((3R,4R)-3-amino-4-methylpyrrolidin-1-yl)-1-(oxetan-3-yl)-1H-indazol-5-yl)-1-(2,6-difluorophenyl)-6-oxo-1,6-dihydropyridazine-3-carboxamide]	< 100
C[C@H]1CN(c2c(NC(=O)c3ccc(=O)n(-c4c(F)cccc4F)n3)ccc3c2cnn3[C@@H]2CCOC2)C[C@@H]1N [Example 259, N-(4-((3R,4S)-3-amino-4-methylpyrrolidin-1-yl)-1-((R)-tetrahydrofuran-3-yl)-1H-indazol-5-yl)-1-(2,6-difluorophenyl)-6-oxo-1,6-dihydropyridazine-3-carboxamide]	< 100
C[C@H]1CN(c2c(NC(=O)c3ccc(=O)n(-c4c(F)cccc4F)n3)ccc3c2cnn3[C@H]2CCOC2)C[C@@H]1N [Example 260, N-(4-((3R,4S)-3-amino-4-methylpyrrolidin-1-yl)-1-((S)-tetrahydrofuran-3-yl)-1H-indazol-5-yl)-1-(2,6-difluorophenyl)-6-oxo-1,6-dihydropyridazine-3-carboxamide]	< 100
C[C@@H]1CN(c2c(NC(=O)c3ccc(=O)n(-c4c(F)cccc4F)n3)ccc3c2cnn3C2CCOCC2)C[C@@H]1N [Example 261, N-(4-((3R,4R)-3-amino-4-methylpyrrolidin-1-yl)-1-(tetrahydro-2H-pyran-4-yl)-1H-indazol-5-yl)-1-(2,6-difluorophenyl)-6-oxo-1,6-dihydropyridazine-3-carboxamide]	< 100
C[C@@H]1CN(c2c(NC(=O)c3ccc(=O)n(-c4c(F)cccc4F)n3)ccc3c2cnn3[C@@H]2CCOC2)C[C@@H]1N [Example 262, N-(4-((3R,4R)-3-amino-4-methylpyrrolidin-1-yl)-1-((R)-tetrahydrofuran-3-yl)-1H-indazol-5-yl)-1-(2,6-difluorophenyl)-6-oxo-1,6-dihydropyridazine-3-carboxamide]	< 100
N[C@@H]1CCCN(c2c(NC(=O)c3ccc(=O)n(-c4c(F)cccc4F)n3)ccc3c2cnn3[C@H]2CCOC2)C1 [Example 263, N-(4-((R)-3-aminopiperidin-1-yl)-1-((S)-tetrahydrofuran-3-yl)-1H-indazol-5-yl)-1-(2,6-difluorophenyl)-6-oxo-1,6-dihydropyridazine-3-carboxamide]	< 100
N[C@@H]1CCCN(c2c(NC(=O)c3ccc(=O)n(-c4c(F)cccc4F)n3)ccc3c2cnn3[C@@H]2CCOC2)C1 [Example 264, N-(4-((R)-3-aminopiperidin-1-yl)-1-((R)-tetrahydrofuran-3-yl)-1H-indazol-5-yl)-1-(2,6-difluorophenyl)-6-oxo-1,6-dihydropyridazine-3-carboxamide]	< 100
NC1CCN(c2c(NC(=O)c3ccc(=O)n(-c4c(F)cccc4F)n3)ccc3c2cnn3[C@@H]2CCOC2)CC1 [Example 265, (R)-N-(4-(4-aminopiperidin-1-yl)-1-(tetrahydrofuran-3-yl)-1H-indazol-5-yl)-1-(2,6-difluorophenyl)-6-oxo-1,6-dihydropyridazine-3-carboxamide]	< 100
NC1CCN(c2c(NC(=O)c3ccc(=O)n(-c4c(F)cccc4F)n3)ccc3c2cnn3[C@H]2CCOC2)CC1 [Example 266, (S)-N-(4-(4-aminopiperidin-1-yl)-1-(tetrahydrofuran-3-yl)-1H-indazol-5-yl)-1-(2,6-difluorophenyl)-6-oxo-1,6-dihydropyridazine-3-carboxamide]	< 100
CC1(C)CN(c2c(NC(=O)c3ccc(=O)n(-c4c(F)cccc4F)n3)ccc3c2cnn3[C@@H]2CCOC2)C[C@@H]1N [Example 267, N-(4-((R)-4-amino-3,3-dimethylpyrrolidin-1-yl)-1-((R)-tetrahydrofuran-3-yl)-1H-indazol-5-yl)-1-(2,6-difluorophenyl)-6-oxo-1,6-dihydropyridazine-3-carboxamide]	< 100
CC1(C)CN(c2c(NC(=O)c3ccc(=O)n(-c4c(F)cccc4F)n3)ccc3c2cnn3[C@@H]2CCOC2)C[C@H]1N [Example 268, N-(4-((S)-4-amino-3,3-dimethylpyrrolidin-1-yl)-1-((R)-tetrahydrofuran-3-yl)-1H-indazol-5-yl)-1-(2,6-difluorophenyl)-6-oxo-1,6-dihydropyridazine-3-carboxamide]	< 100
CC1(C)CN(c2c(NC(=O)c3ccc(=O)n(-c4c(F)cccc4F)n3)ccc3c2cnn3[C@H]2CCOC2)C[C@@H]1N [Example 269, N-(4-((R)-4-amino-3,3-dimethylpyrrolidin-1-yl)-1-((S)-tetrahydrofuran-3-yl)-1H-indazol-5-yl)-1-(2,6-difluorophenyl)-6-oxo-1,6-dihydropyridazine-3-carboxamide]	< 100
CC1(C)CN(c2c(NC(=O)c3ccc(=O)n(-c4c(F)cccc4F)n3)ccc3c2cnn3[C@H]2CCOC2)C[C@H]1N [Example 270, N-(4-((S)-4-amino-3,3-dimethylpyrrolidin-1-yl)-1-((S)-tetrahydrofuran-3-yl)-1H-indazol-5-yl)-1-(2,6-difluorophenyl)-6-oxo-1,6-dihydropyridazine-3-carboxamide]	< 100
N[C@H]1CN(c2c(NC(=O)c3ccc(=O)n(-c4c(F)cccc4F)n3)ccc3c2cnn3[C@H]2CCCOC2)CC12CC2 [Example 271, N-(4-((R)-7-amino-5-azaspiro[2.4]heptan-5-yl)-1-((S)-tetrahydro-2H-pyran-3-yl)-1H-indazol-5-yl)-1-(2,6-difluorophenyl)-6-oxo-1,6-dihydropyridazine-3-carboxamide]	< 100
N[C@H]1CN(c2c(NC(=O)c3ccc(=O)n(-c4c(F)cccc4F)n3)ccc3c2cnn3[C@@H]2CCCOC2)CC12CC2 [Example 272, N-(4-((R)-7-amino-5-azaspiro[2.4]heptan-5-yl)-1-((R)-tetrahydro-2H-pyran-3-yl)-1H-indazol-5-yl)-1-(2,6-difluorophenyl)-6-oxo-1,6-dihydropyridazine-3-carboxamide]	< 100
C[C@H]1CN(c2c(NC(=O)c3ccc(=O)n(-c4c(F)cccc4F)n3)ccc3c2cnn3C2CCOCC2)C[C@@H]1N [Example 273, N-(4-((3R,4S)-3-amino-4-methylpyrrolidin-1-yl)-1-(tetrahydro-2H-pyran-4-yl)-1H-indazol-5-yl)-1-(2,6-difluorophenyl)-6-oxo-1,6-dihydropyridazine-3-carboxamide]	< 100
N[C@@H]1CCN(c2c(NC(=O)c3ccc(=O)n(-c4c(F)cccc4F)n3)ccc3c2cnn3C2CCOCC2)C1 [Example 274, N-[4-[(3R)-3-aminopyrrolidin-1-yl]-1-tetrahydropyran-4-yl-indazol-5-yl]-1-(2,6-difluorophenyl)-6-oxo-pyridazine-3-carboxamid]	< 100
[2H]C([2H])([2H])C([2H])(n1ncc2c(N3C[C@@H](C)[C@@H](N)C3)c(NC(=O)c3ccc(=O)n(-c4c(F)cccc4F)n3)ccc21)C([2H])([2H])[2H] [Example 275, N-(4-((3R,4R)-3-amino-4-methylpyrrolidin-1-yl)-1-(propan-2-yl-d7)-1H-indazol-5-yl)-1-(2,6-difluorophenyl)-6-oxo-1,6-dihydropyridazine-3-carboxamide]	< 100
[2H]C([2H])([2H])C([2H])(n1ncc2c(N3C[C@H](N)C4(CC4)C3)c(NC(=O)c3ccc(=O)n(-c4c(F)cccc4F)n3)ccc21)C([2H])([2H])[2H] [Example 276, (R)-N-(4-(7-amino-5-azaspiro[2.4]heptan-5-yl)-1-(propan-2-yl-d7)-1H-indazol-5-yl)-1-(2,6-difluorophenyl)-6-oxo-1,6-dihydropyridazine-3-carboxamide]	< 100
[2H]C([2H])([2H])C(n1ncc2c(N3C[C@H](N)C4(CC4)C3)c(NC(=O)c3ccc(=O)n(-c4c(F)cccc4F)n3)ccc21)C([2H])([2H])[2H] [Example 277, (R)-N-(4-(7-amino-5-azaspiro[2.4]heptan-5-yl)-1-(propan-2-yl-1,1,1,3,3,3-d6)-1H-indazol-5-yl)-1-(2,6-difluorophenyl)-6-oxo-1,6-dihydropyridazine-3-carboxamide]	< 100
[2H]C([2H])([2H])C(n1ncc2c(N3C[C@@H](C)[C@@H](N)C3)c(NC(=O)c3ccc(=O)n(-c4c(F)cccc4F)n3)ccc21)C([2H])([2H])[2H] [Example 278, N-(4-((3R,4R)-3-amino-4-methylpyrrolidin-1-yl)-1-(propan-2-yl-1,1,1,3,3,3-d6)-1H-indazol-5-yl)-1-(2,6-difluorophenyl)-6-oxo-1,6-dihydropyridazine-3-carboxamide]	< 100
